Experimental data published in EP0226985A2, “Method and reagent for determining testosterone as well as a monoclonal antibody suitable for this” (BOEHRINGER MANNHEIM GMBH, priority 1985, dated 1987).

How the values were obtained:
[1] = test system: monoklonaler Antikörper MAK 160 (von Klon 160, ECACC 85 12 1701) gegen Testosteron; assay: Cross-reaction with other steroids, competitive ELISA on plates coated with Testosteron-3-carboxymethyloxim-RSA; assay type: binding, Maus; details: calculated from C = antigen concentration needed to reach 50 % of the maximum signal, relative to Testosteron
Procedure: (§1) Um die Anwesenheit und Spezifität von Antikörpern gegen Testosteron im Serum immunisierter Mäuse oder in dem Kulturüberstand der Hybridzellen oder in Ascites zu erkennen, wird ein ELISA-Verfahren als Testprinzip verwendet: Mikrotiterplatten werden mit 1 /ug Testosteron-3-carboxymethyloxim-RSA/ml Beschichtungspuffer (0,2 M Natriumcarbonat/-Bicarbonat, pH 9,3-9,5) bei 37° C eine Stunde lang beschichtet. Es wird 10 Minuten mit 0,9 % Natriumchloridlösung und 1 % Albuminlösung nachbehandelt. Anschließend wird mit 0,9 % Natriumchloridlösung gewaschen. Danach wird bei 37° C eine Stunde mit 100 /ul Probe inkubiert und erneut mit 0,9 % Natriumchloridlösung gewaschen. Um eine mögliche Kreuzreaktion mit anderen Steroiden zu prüfen, werden der Probelösung 100 µg - 1 /ug/ml des zu prüfenden Steroids zugesetzt. Eine Erniedrigung des Meßsignals in Gegenwart anderer Steroide bedeutet Kreuzreaktion. Es folgt eine weitere Inkubation (eine Stunde, 37° C) mit 450 mU/ml eines Schaf-Fabanti-- Maus-Fcγ-Peroxidase-Konjugats. Nach einem erneuten Waschschritt mit 0,9 % Natriumchlorid wird die Peroxidaseaktivität in üblicher Weise bestimmt (beispielsweise mit ABTS, 30 Minuten bei Raumtemperatur, abgelesen wird die Extinktionsdifferenz, Δ mE, bei 405 nm).
(§2) Der Test wird, wie in Beispiel 2 beschrieben, durchgeführt. […]

[2] = test system: monoklonaler Antikörper MAK 97 (von Klon 97, ECACC 85 12 1702) gegen Testosteron; assay: as above; assay type: binding, Maus; details: calculated from C = antigen concentration needed to reach 50 % of the maximum signal, relative to Testosteron
Procedure: as §1, §2

## C[C@]12CCC(=O)C[C@@H]1CC[C@@H]1[C@@H]2CC[C@]2(C)[C@@H](O)CC[C@@H]12 [5α-Dihydrotestosteron]
[1]
  Kreuzreaktion in % mit: 4%
[2]
  Kreuzreaktion in % mit: 5%
